This is an account of results in patent publication US20070060573A1, “Acyltryptophanols” (priority 2005, published 2007).

For orientation: IC50 means the point on the concentration scale where inhibition reaches its midpoint.

In the experiment the target is T1, human FSH receptor (Homo sapiens, UniProt P23945).
T1 construct: expressed in transfected cells; host or cells: CHO cells (hFSHR clone 16)
T1 sequence (P23945 18-695): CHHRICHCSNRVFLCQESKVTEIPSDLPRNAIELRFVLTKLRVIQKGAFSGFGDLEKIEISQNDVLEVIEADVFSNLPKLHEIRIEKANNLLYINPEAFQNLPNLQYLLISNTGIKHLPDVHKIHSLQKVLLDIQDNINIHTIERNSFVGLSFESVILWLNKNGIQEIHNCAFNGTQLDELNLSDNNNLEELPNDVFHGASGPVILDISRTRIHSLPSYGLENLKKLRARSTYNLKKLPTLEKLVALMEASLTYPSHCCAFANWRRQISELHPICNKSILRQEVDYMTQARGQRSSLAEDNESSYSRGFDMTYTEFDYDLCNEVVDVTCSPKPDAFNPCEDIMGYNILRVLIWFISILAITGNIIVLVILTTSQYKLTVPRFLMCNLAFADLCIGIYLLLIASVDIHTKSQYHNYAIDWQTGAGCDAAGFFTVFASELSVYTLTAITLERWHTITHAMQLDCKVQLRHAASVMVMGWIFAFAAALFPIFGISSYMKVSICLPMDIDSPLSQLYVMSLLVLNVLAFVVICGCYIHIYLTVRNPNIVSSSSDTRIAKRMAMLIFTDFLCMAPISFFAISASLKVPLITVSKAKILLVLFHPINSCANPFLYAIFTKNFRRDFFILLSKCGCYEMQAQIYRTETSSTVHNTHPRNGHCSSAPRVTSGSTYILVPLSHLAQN
Description: HTRF assay for measuring cAMP in cells, FSH-antagonistic effect (in the presence of hFSH). To be noted: hFSHR clone 16 cells (CHO cells stably transfected with the human FSH receptor), in the presence of 1e-9 mol/l hFSH, 37° C. for 2 h. The format is cell-based.
Description: […]
(Time-resolved FRET reads energy transfer from a long-lived donor to a nearby acceptor.)
With `COc1cc(COc2ccccc2CCC(=O)N[C@@H](CO)Cc2c[nH]c3ccccc23)cc(OC)c1OC` [Example 91, N-[(R)-1-(Hydroxymethyl)-2-(1H-indol-3-yl)ethyl]-2-[(3,4,5-trimethoxyphenyl)methoxy]phenylpropanamide], the half-maximal inhibitory concentration (IC50) was determined as 6000 nM.

Turning to `COc1cc(-c2cc(C(=O)N[C@@H](CO)Cc3c[nH]c4ccccc34)c3cc([N+](=O)[O-])ccc3n2)cc(OC)c1OC` [Example 19, N-[(R)-1-(Hydroxymethyl)-2-(1H-indol-3-yl)ethyl]-6-nitro-2-(3,4,5-trimethoxyphenyl)quinoline-4-carboxamide], the half-inhibitory concentration (IC50) came to 6000 nM.

As for `COc1ccc2nc(/C=C/c3ccc(OC)c(OC)c3)cc(C(=O)N[C@@H](CO)Cc3c[nH]c4ccccc34)c2c1` [Example 38, 2-[(E)-2-(3,4-Dimethoxyphenyl)ethenyl]-N-[(R)-1-(hydroxymethyl)-2-(1H-indol-3-yl)ethyl]-6-methoxyquinoline-4-carboxamide], the IC50 stood at 900 nM.

In the case of `COCCCc1ccc2nc(-c3cc(OC)c(OC)c(OC)c3)cc(C(=O)N[C@@H](CO)Cc3c[nH]c4ccccc34)c2c1` [Example 392, 6-(3-Methoxypropyl)-2-(3,4,5-trimethoxyphenyl) quinoline-4-carboxylic acid [(R)-1-hydroxy-methyl-2-(1H-indol-3-yl)ethyl]amide], the IC50 is 1500 nM.

As to `COc1cc(-c2cc(C(=O)NC(CO)Cc3c[nH]c4ccc(OCc5ccccc5)cc34)c3ccccc3n2)cc(OC)c1OC` (racemic) [Example 9, N-[(R,S)-1-(Hydroxymethyl)-2-[5-(phenylmethoxy)-1H-indol-3-yl]ethyl]-2-(3,4,5-trimethoxyphenyl)quinoline-4-carboxamide], the IC50 is 200 nM.

Turning to `CCCCCCn1cc(C[C@H](CO)NC(=O)c2cc(-c3cc(OC)c(OC)c(OC)c3)nc3ccc(OC)cc23)c2ccccc21` [Example 345, N-[(R)-1-(Hydroxymethyl)-2-(1-nhexyl-1H-indol-3-yl)ethyl]-6-methoxy-2-(3,4,5-trimethoxyphenyl)quinoline-4-carboxamide], the 50% inhibitory concentration (IC50) turned out to be 1000 nM.

Take `COc1cc(-c2cc(C(=O)N[C@@H](CO)Cc3c[nH]c4ccccc34)c3cc(F)ccc3n2)cc(OC)c1OC` [Example 17, 6-Fluoro-N-[(R)-1-(hydroxymethyl)-2-(1H-indol-3-yl)ethyl]-2-(3,4,5-trimethoxyphenyl)quinoline-4-carboxamide]: the IC50 is 400 nM.
